Read-outs that look alike come from different tables or passages of the source.
Legend:
HepG2 cells = test: MTT antitumour assay, HepG2; type: cell-based; conditions: human hepato-cellular carcinoma cell line, mean ± SD, n = 3
Method: (§1) The evaluation of the antitumour activity was performed using tetrazolium salt MTT (3-(4,5-dimethyl-2-thiazolyl)-2,5-diphenyl-2H-tetrazolium bromide) assay as reported[62]^,[63].
(§2) The designed compounds were evaluated for their in vitro antitumour effects via the standard 3-(4,5-dimethylthiazol-2-yl)-2,5-diphenyltetrazolium bromide (MTT) method against a panel of four human tumour cell lines; namely, hepatocellular carcinoma cell line (HepG2), breast cancer cell line (MCF-7), human cervical cancer cell line (HeLa), and prostate cancer cell line (PC-3)[62]^,[63]^,[72]. The antitumour activities of the designed compounds 4–12, along with that of the reference drugs 5-FU and afatinib are shown in Table 1.

MCF-7 cells = test: MTT antitumour assay, MCF-7; type: cell-based; conditions: MCF7, human breast adenocarcinoma cell line, mean ± SD, n = 3
Method: as §1, §2

HeLa cells = test: MTT antitumour assay, HeLa; type: cell-based; conditions: human cervical epithelioid carcinoma cell line, mean ± SD, n = 3
Method: as §1
as §2, with “(PC-3)[62]^,[63]^,[72].” for “(PC-3)[62]^,[63]^,[72]. The antitumour activities of the designed compounds 4–12, along with that of the reference drugs 5-FU and afatinib are shown in Table 1.”

PC-3 cells = test: MTT antitumour assay, PC-3; type: cell-based; conditions: human prostate cancer cell line, mean ± SD, n = 3
Method: as §1, §2

[1] = ABTS radical cation scavenging (antioxidant) assay; conditions: 20 µl of 1 mg/ml test sample (L-ascorbic acid 20 µl, 2 mM)
Method: The absorbance (Acontrol) of a green-blue solution (ABTS^+ radical solution) resulted from a mixture of ABTS and manganese dioxide (MnO2) and was recorded at λmax 734 nm, according to the reported procedure[64]^,[65]. The absorbance (Atest) was measured upon the addition of 20 µl of 1 mg/ml solution of the test sample in spectroscopic grade methanol/phosphate buffer (1:1 v/v) to the ABTS solution. The decrease in absorbance is expressed as % inhibition, which can be calculated from the following equation: % inhibition = Acontrol-Atest/Acontrol×100.
L-Ascorbic acid 20 µl (2 mM) solution was used as standard antioxidant (positive control). A blank sample was run using only methanol/phosphate buffer (1:1), while the negative control was run with ABTS and the methanol/phosphate buffer.
The assay is based on measuring the ability of the tested compounds to scavenge the long-life radical cation of ABTS[22]^,[43]^,[64]^,[65].

[2] = test system: HepG2, MCF-7, HeLa, and PC-3 cancer cell lines; test: MTT antitumour assay, range over the four cell lines; type: cell-based, human; conditions: range over HepG2, MCF-7, HeLa, PC-3 (and over the compounds named), read-out: IC50 range against the tested cell lines
Method: as §1, §2

EGFR kinase = EGFR kinase (Homo sapiens, UniProt P00533); test: ELISA-based EGFR kinase inhibition assay; conditions: for inhibition at 0.15 µM: read-out: % Inhibition EGFR, 0.15 μM; for inhibition at 0.31 µM: read-out: % Inhibition EGFR, 0.31 μM; for inhibition at 0.625 µM: read-out: % Inhibition EGFR, 0.625 μM; for inhibition at 1.25 µM: read-out: % Inhibition EGFR, 1.25 μM; for inhibition at 2.5 µM: read-out: % Inhibition EGFR, 2.5 μM; for inhibition at 5 µM: read-out: % Inhibition EGFR, 5.0 μM; for inhibition at 10 µM: read-out: % Inhibition EGFR, 10.0 μM; for Conc. (Average), ELISA read-out: duplicate wells, standards in ng/ml, cont 134.9
Chain of EGFR kinase (P00533 25-1210): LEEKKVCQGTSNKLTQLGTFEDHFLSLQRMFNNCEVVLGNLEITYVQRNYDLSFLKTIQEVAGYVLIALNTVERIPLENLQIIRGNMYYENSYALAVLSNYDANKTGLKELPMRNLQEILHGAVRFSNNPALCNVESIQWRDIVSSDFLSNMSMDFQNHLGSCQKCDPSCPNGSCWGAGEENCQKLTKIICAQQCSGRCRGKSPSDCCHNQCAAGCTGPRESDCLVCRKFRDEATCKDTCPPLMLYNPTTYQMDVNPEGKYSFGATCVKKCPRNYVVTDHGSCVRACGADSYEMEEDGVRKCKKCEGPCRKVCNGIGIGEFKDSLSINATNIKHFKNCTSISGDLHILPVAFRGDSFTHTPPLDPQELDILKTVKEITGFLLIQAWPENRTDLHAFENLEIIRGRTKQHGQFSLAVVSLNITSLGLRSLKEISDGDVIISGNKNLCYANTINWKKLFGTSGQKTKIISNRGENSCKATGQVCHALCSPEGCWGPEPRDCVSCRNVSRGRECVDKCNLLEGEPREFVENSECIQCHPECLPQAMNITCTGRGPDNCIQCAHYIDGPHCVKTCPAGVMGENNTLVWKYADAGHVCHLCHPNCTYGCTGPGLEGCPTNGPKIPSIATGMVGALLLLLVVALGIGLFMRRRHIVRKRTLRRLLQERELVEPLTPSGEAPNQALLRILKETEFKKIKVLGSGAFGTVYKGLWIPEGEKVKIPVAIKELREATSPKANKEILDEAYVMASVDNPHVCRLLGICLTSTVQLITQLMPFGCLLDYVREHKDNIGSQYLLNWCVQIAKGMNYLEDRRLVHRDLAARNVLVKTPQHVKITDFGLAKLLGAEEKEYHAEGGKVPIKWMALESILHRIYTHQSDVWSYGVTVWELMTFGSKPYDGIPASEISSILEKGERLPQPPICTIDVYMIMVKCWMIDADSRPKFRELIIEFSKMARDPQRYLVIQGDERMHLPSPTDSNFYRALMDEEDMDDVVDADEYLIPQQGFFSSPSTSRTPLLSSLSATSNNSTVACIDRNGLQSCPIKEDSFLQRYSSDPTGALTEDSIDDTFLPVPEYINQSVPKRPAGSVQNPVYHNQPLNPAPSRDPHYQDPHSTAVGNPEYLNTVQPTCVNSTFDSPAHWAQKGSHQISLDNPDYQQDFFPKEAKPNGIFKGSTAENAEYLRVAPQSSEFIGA

SMILES | IC50 (HepG2 cells) [µM] | IC50 (MCF-7 cells) [µM] | IC50 (HeLa cells) [µM] | IC50 (PC-3 cells; PC-3, MTT) [µM] | %Inhibition of the ABTS radical cation [1] [%] | IC50 ([2]; Homo sapiens) [µM] | IC50 (EGFR kinase) [µM] | % Inhibition EGFR (EGFR kinase; 0.15 μM) [%] | % Inhibition EGFR (EGFR kinase; 0.31 μM) [%] | % Inhibition EGFR (EGFR kinase; 0.625 μM) [%] | % Inhibition EGFR (EGFR kinase; 1.25 μM) [%] | % Inhibition EGFR (EGFR kinase; 2.5 μM) [%] | % Inhibition EGFR (EGFR kinase; 5.0 μM) [%] | % Inhibition EGFR (EGFR kinase; 10.0 μM) [%] | inhibition at 0.15 µM (EGFR kinase) [%] | inhibition at 0.31 µM (EGFR kinase) [%] | inhibition at 0.625 µM (EGFR kinase) [%] | inhibition at 1.25 µM (EGFR kinase) [%] | inhibition at 2.5 µM (EGFR kinase) [%] | inhibition at 5 µM (EGFR kinase) [%] | further results
CCN1CCC(=O)C(=Cc2ccc(OC3CCCC3)cc2)C1 [6b, 3-(4-(Cyclopentyloxy)benzylidene)-1-ethylpiperidin-4-one] | 13 ± 0.87 | 13.7 ± 1.35 | 6.7 ± 0.67 | 9.1 ± 0.88 | 55.1 | 5.5 to 18.1 | 0.56 | 26.52 | 48.95 | 55.33 | 61.23 | 64.44 | 76.71 | 83.66 | 26.5 | 49 | 55.3 | 61.2 | 64.4 | 76.7 | inhibition at 10 µM (EGFR kinase): 83.7%; Conc. (Average), ELISA read-out (EGFR kinase; sample at 0.15uM): 99.12; Conc. (Average), ELISA read-out (EGFR kinase; sample at 0.31uM): 68.86; Conc. (Average), ELISA read-out (EGFR kinase; sample at 0.62uM): 60.25; Conc. (Average), ELISA read-out (EGFR kinase; sample at 1.25uM): 52.29; Conc. (Average), ELISA read-out (EGFR kinase; sample at 2.5uM): 47.96; Conc. (Average), ELISA read-out (EGFR kinase; sample at 5uM): 31.41; Conc. (Average), ELISA read-out (EGFR kinase; sample at 10uM): 22.04
Cc1ccc(C2=NN(c3ccccc3)C(c3ccc(OC4CCCC4)cc3)C2)cc1 (stereo not drawn) [8b, 5-(4-(Cyclopentyloxy)phenyl)-1-phenyl-3-(4-methylphenyl)-4,5-dihydro-1H-pyrazole] | 7.2 ± 0.24 | 5.6 ± 0.36 | 5.5 ± 0.45 | 7.8 ± 0.56 | 88.5 | 5.5 to 18.1 | 2.16 | 6.96 | 26.25 | 43.85 | 47.28 | 50.51 | 60.72 | 64.88 | 6.97 | 26.3 | 43.9 | 47.3 | 50.5 | 60.7 | IC50 [2]: 5.5 to 7.8 µM; inhibition at 10 µM (EGFR kinase): 64.9%; Conc. (Average), ELISA read-out (EGFR kinase; sample at 0.15uM): 125.5; Conc. (Average), ELISA read-out (EGFR kinase; sample at 0.31uM): 99.48; Conc. (Average), ELISA read-out (EGFR kinase; sample at 0.62uM): 75.74; Conc. (Average), ELISA read-out (EGFR kinase; sample at 1.25uM): 71.11; Conc. (Average), ELISA read-out (EGFR kinase; sample at 2.5uM): 66.76; Conc. (Average), ELISA read-out (EGFR kinase; sample at 5uM): 52.98; Conc. (Average), ELISA read-out (EGFR kinase; sample at 10uM): 47.37
O=C(O)c1cc(C=Cc2ccc(OC3CCCC3)cc2)nc2ccc(Br)cc12 [12a, 6-Bromo-2-(4-(cyclopentyloxy)styryl)quinoline-4-carboxylicacid] | 85.4 ± 5.31 | 87.1 ± 5.24 | 89.4 ± 4.89 | > 100 | – | – | – | – | – | – | – | – | – | – | – | – | – | – | – | – | melting point: > 300 °C
CN(C)C/C=C/C(=O)Nc1cc2c(Nc3ccc(F)c(Cl)c3)ncnc2cc1O[C@H]1CCOC1 [Afatinib, reference compound] | 5.4 ± 0.25 | 7.1 ± 0.49 | 6.2 ± 0.67 | – | – | 5.4 to 7.6 | – | – | – | – | – | – | – | – | – | – | – | – | – | – | IC50 (PC-3 cells; Homo sapiens, PC-3, MTT): 7.6 µM; IC50 (PC-3 cells; MTT): 7.7 ± 0.57 µM
O=C1O[C@H]([C@@H](O)CO)C(O)=C1O [Ascorbic acid, L-Ascorbic acid, reference compound] | – | – | – | – | 90.0 | – | – | – | – | – | – | – | – | – | – | – | – | – | – | – | –
CCOC(=O)C1=C(C)OC(N)=C(C#N)C1c1ccc(OC2CCCC2)cc1 (stereo not drawn) [compound 7, ethyl 6-amino-5-cyano-4-(4-(cyclopentyloxy)phenyl)-2-methyl-4H-pyran-3-carboxylate] | 8 ± 0.38 | 7.5 ± 0.54 | 10.3 ± 1.13 | 13.3 ± 1.26 | 75.8 | 5.5 to 18.1 | 1.6 | 8.22 | 31.78 | 43.27 | 49.65 | 52.86 | 65.98 | 72.78 | 8.23 | 31.8 | 43.3 | 49.7 | 52.9 | 66 | inhibition at 10 µM (EGFR kinase): 72.8%; Conc. (Average), ELISA read-out (EGFR kinase; sample at 0.15uM): 123.8; Conc. (Average), ELISA read-out (EGFR kinase; sample at 0.31uM): 92.02; Conc. (Average), ELISA read-out (EGFR kinase; sample at 0.62uM): 76.52; Conc. (Average), ELISA read-out (EGFR kinase; sample at 1.25uM): 67.92; Conc. (Average), ELISA read-out (EGFR kinase; sample at 2.5uM): 63.59; Conc. (Average), ELISA read-out (EGFR kinase; sample at 5uM): 45.89; Conc. (Average), ELISA read-out (EGFR kinase; sample at 10uM): 36.71
Cc1ccc(-c2cc(-c3ccc(OC4CCCC4)cc3)c(C#N)c(=O)[nH]2)cc1 [compound 10, 4-(4-(cyclopentyloxy)phenyl)-2-oxo-6-(4-methylphenyl)-1,2-dihydropyridine-3-carbonitrile] | 80.9 ± 5.34 | 70.9 ± 4.98 | 51.2 ± 3.82 | 41.9 ± 2.87 | – | – | – | – | – | – | – | – | – | – | – | – | – | – | – | – | melting point: 278 to 280 °C

— publication PMC6010098, “Synthesis, antitumour and antioxidant activities of novel α,β-unsaturated ketones and related heterocyclic analogues: EGFR inhibition and molecular modelling study” (Journal of Enzyme Inhibition and Medicinal Chemistry, 2018)
